Experimental data taken from patent publication US11033518B2, “Pharmaceutical composition containing niclosamide for treating axin-GSK3 interaction-related diseases” (BAOBAB PHARM CO., LTD., priority 2017, dated 2021).

Legend:
Axin2-GSK3 complex = biological target: T1, Axin2-GSK3 complex (Homo sapiens, UniProt P49841); assay: Immunoprecipitation of His-tagged Axin2 from MCF-7 cell lysates; assay type: binding; conditions: total cell lysates of MCF-7 expressing His-tagged Axin2
T1 construct: Triton X-100 lysates of total cells; endogenous in cells; host or cells: MCF-7 cells; GSK3 is endogenous; His-tagged Axin2 comes from a transfected doxycycline-inducible vector
T1 sequence (P49841 whole entry, one chain of several): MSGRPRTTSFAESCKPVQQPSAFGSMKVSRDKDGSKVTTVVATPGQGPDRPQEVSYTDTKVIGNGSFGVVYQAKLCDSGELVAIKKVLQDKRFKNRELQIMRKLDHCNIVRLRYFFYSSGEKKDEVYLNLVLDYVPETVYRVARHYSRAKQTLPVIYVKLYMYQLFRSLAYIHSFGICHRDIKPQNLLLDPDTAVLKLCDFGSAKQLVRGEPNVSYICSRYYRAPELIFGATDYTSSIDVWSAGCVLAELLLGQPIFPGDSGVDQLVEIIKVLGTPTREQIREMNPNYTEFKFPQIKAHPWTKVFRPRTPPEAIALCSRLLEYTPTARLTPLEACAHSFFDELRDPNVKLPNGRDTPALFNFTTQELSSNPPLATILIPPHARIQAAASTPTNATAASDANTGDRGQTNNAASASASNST
Description: In order to confirm whether niclosamide could inhibit Axin-GSK3 interaction, to perform an immunoprecipitation experiment under the condition with or without niclosamide, cell lysates having full-length Axin2 were investigated.
The immunoprecipitation assay was performed as follows (Yook J I, et al. Nat Cell Biol. 8:1398-1406, 2006).
The doxycycline-induced His-tagged Axin2 expression vector was transformed to MCF-7 cell (ATCC, American Type Culture Collection) and was cultured, and was reacted by treating […] (Invitrogen) and niclosamide of each concentration to Triton X-100 lysates of total cells. The protein recovered in beads was subjected to SDS-PAGE, followed by immunoblot analysis, and a control group of 1/20 volume was added.

HCT116 and SW480 cells = assay: Tumor growth of HCT116 and SW480 cells injected into nude mice; assay type: in vivo; conditions: intraperitoneal administration daily
Description: Next, the effect of niclosamide having tumor formation potential in vivo experiment of HCT116 and SW480 cells was investigated.
Colorectal cancer cell lines HCT116 (5×10^6 cells) and SW480 (5×10^6 cells) were mixed in 100 μl PBS and were injected into flank subcutaneous tissues in female athymic nude mice (6 weeks old). Mice were randomly assigned to two groups and a vehicle and niclosamide were intraperitoneally injected daily and they were treated for […]. Niclosamide was dissolved with 10% Cremophor EL (BASF) and 0.9% NaCl and then was intraperitoneally injected. After injection of colorectal cancer cells, mice were observed daily and the weight change was measured twice a week. In addition, when a tumor was observed, it was measured with calipers. The tumor size was calculated by the equation (LXW2)/2. Herein, L is a long diameter of the tumor and W is a short diameter.

Snail, E-cadherin = assay: Immunoblot of Snail and E-cadherin in SW480 xenograft tumor; assay type: in vivo, mice; conditions: 50 mg/kg, 200 mg/kg intraperitoneally for 3 days
Description: In order to investigate in vivo MoA of niclosamide controlling Snail-mediated EMT, through xenografts, the change of protein amount of Snail and E-cadherin in the tumor by niclosamide treatment was confirmed. The colorectal cancer cell line, SW480 cells (5×10^6) were subcutaneously injected to nude mice. When the tumor size became 500 mm^3 on average, mice were randomly divided into 3 groups, and a vehicle or niclosamide (50 mg/kg, 200 mg/kg) was intraperitoneally injected for 3 days. After sacrificing mice, the tumor tissue part was separated using Pro-prep protein extraction solution (#17081, Intron), and the amount of protein of Snail and E-cadherin in the tumor sample was measured by immunoblot assay.

[1] = system: TCF/LEF transcriptional activity induced by mutant APC; assay: TCF/LEF transcriptional activity in 293 cell transformed by mutant APC; assay type: cell-based; conditions: 0, 0.125, 0.25, 0.5 μM, 24 hours
Description: Based on the results of Examples 2-5 that niclosamide inhibited Wnt activity and EMT through Axin-GSK3 inhibition, whether niclosamide could attenuate the TCF/LEF transcriptional activity induced by mutant APC was confirmed.
After transforming the mutant APC expression vector, pCMV-neo-Bam APC 1-1309 (#16508, Addgene) or pCMV-neo-BamAPC 1-1941 (#16510, Addgene) and Topflash reporter vector to 293 cell (ATCC), niclosamide (0 μM, 0.125 μM, 0.25 μM and 0.5 μM) was treated for 24 hours. The TCF/LEF transcriptional activity was quantified by measuring the luciferase activity as same as Example 2.

intestinal adenoma = assay: Adenoma formation in APC-MIN mice model; assay type: in vivo
Description: In addition, in order to confirm the therapeutic effect of niclosamide in vivo, the effect of niclosamide affecting on adenoma formation in APC-MIN (multiple intestinal neoplasia, APCΔ850) mice model was confirmed.
APC-MIN mice were prepared by crossbreeding of wild-type C57BL/6J (APC+/+) females and MIN C57BL/6J (APCMin/+) males, and APC-MIN descendants were randomly assigned in subgroups at 3 weeks age by identifying with PCR-based assay. A vehicle or niclosamide (50 mg/kg) was intraperitoneally injected daily (6 days/week), and mice were observed daily, and the weight was measured twice a week. After the end of 14 weeks, mice were sacrificed and the whole intestine was collected and intestinal flakes were opened longitudinally with scissors, and were washed with saline and were unfolded, and then tissues were obtained. The tissues were fixed with 10% formalin for 24 hours and were washed with 70% alcohol. The fixed intestinal tissues were observed using a stereomicroscope, and the size of adenoma (small, <1 mm; medium 1˜3 mm; large >3 mm) was discriminated and counted for each mouse. In case of oral administration, APC-MIN mice ingested niclosamide mixed with 15% sugar gel vehicle daily (6 days/week) for 14 weeks. The number and size of adenoma were measured with a stereomicroscope.

[2] = biological target: Helicobacter pylori CagA - GSK3 binding (Homo sapiens, UniProt P49841); assay: Immunoprecipitation of CagA and GSK3; conditions: various amounts
Helicobacter pylori CagA - GSK3 binding, sequence (P49841 whole entry): as the sequence (P49841 whole entry, one chain of several) above
Description: (§1) In view of the results of Examples 2˜5 that niclosamide inhibited Wnt activity and EMT through Axin-GSK3 inhibition, and that CagA of Helicobacter (Helicobacter pylori) bound to GSK-3 similarly to Axin, the effect of GSK-3 binding and Snail induction by CagA of Helicobacter pylori by niclosamide was confirmed. It was confirmed that binding of CagA and GSK3 was inhibited by niclosamide similarly to Axin 2, when examining with immunoprecipitation after adding various amounts of niclosamide to this sample (FIG. 10A). In addition, it could be seen that Snail expression by CagA was inhibited when treating niclosamide after inducing CagA and Snail expression in the 293 cell (FIG. 10B). Through such a result, it could be seen that niclosamide inhibited the function of CagA performing function similar to Axin and thereby inhibited gastric cancer occurrence and inflammation by Helicobacter.

Snail expression by CagA = assay: Snail expression induced by CagA in the 293 cell; assay type: cell-based
Description: as §1

[3] = orally administered for 14 weeks

## O=C(Nc1ccc([N+](=O)[O-])cc1Cl)c1cc(Cl)ccc1O [niclosamide]
Axin2-GSK3 complex
  GSK3 which bound to Axin2: reduced
HCT116 and SW480 cells
  tumor growth of colorectal cancer cells: significantly inhibited
Snail, E-cadherin
  amount of E-cadherin in tumor: increased
  presence of Snail in tumor: reduced
[1]
  TCF/LEF transcriptional activity increased by mutant APC: reduced
Intestinal adenoma; intraperitoneal 50 mg/kg daily, 14 weeks
  body weight: did not change
Intestinal adenoma; intraperitoneal 50 mg/kg daily, at 14 weeks
  intestinal adenoma: significantly reduced
Intestinal adenoma; [3]
  condition of experimental animal: stable during the drug treatment
  intestinal adenoma formation: significantly inhibited
[2]
  binding of CagA and GSK3: inhibited
Snail expression by CagA
  Snail expression by CagA: inhibited
